{
  "source": "paper PMC6766518",
  "about": "(Physiological Reports, 2019)",
  "key": {"[1]": {"molecular_target": "T1, PTHR1 (MC3T3‐E1 osteoblast cell line) (Mus musculus, UniProt P41593)", "T1 construct": "host or cells: MC3T3-E1 subclone 4", "T1 sequence (P41593 27-591)": "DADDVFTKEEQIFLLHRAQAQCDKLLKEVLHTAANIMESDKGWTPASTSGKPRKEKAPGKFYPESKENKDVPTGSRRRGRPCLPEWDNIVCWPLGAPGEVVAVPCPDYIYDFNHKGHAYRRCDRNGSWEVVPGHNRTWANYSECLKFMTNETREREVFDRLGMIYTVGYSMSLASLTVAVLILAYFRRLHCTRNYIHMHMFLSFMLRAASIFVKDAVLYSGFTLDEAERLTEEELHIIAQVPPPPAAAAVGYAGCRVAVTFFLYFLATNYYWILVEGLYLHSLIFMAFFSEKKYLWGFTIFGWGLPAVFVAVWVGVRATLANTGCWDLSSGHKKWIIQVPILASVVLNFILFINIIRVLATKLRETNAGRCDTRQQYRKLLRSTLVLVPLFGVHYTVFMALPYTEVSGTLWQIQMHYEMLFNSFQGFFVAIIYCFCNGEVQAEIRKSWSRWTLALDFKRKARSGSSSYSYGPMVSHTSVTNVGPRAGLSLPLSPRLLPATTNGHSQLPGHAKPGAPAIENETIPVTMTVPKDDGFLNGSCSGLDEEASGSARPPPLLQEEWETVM", "assay": "Intracellular cAMP generation in MC3T3-E1 osteoblast cells", "type": "cell-based"}, "PTHR1": {"molecular_target": "T2, PTHR1 (Homo sapiens, UniProt Q03431)", "T2 sequence (Q03431 27-593)": "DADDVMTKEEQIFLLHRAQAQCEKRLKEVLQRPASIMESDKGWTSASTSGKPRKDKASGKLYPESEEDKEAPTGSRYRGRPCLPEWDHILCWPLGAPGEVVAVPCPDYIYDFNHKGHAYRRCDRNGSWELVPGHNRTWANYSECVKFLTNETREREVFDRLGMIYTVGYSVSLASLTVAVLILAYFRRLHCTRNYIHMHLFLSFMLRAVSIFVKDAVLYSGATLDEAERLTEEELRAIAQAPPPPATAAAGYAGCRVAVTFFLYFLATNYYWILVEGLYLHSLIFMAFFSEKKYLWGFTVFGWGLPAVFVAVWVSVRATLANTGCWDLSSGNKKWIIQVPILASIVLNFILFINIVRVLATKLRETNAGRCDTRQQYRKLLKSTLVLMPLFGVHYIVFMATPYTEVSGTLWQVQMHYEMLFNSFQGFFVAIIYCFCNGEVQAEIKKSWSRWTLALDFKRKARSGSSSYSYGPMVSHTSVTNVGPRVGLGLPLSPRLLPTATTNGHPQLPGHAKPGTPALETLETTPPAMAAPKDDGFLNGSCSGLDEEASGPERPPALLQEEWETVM", "assay": "PathHunter eXpress PTHR1 CHO-K1 β-arrestin GPCR assay (β-arrestin recruitment)", "type": "cell-based", "conditions": "CHO‐K1 cells; abaloparatide vs teriparatide; P = 0.02"}, "patients": {"tested_on": "patients", "conditions": "cited from earlier work"}, "[2]": {"tested_on": "female C57BL/6J mice (serum Ca^2+ and Pi)", "assay": "Serum Ca2+ and Pi, colorimetric", "conditions": "80 µg/kg/day SC, 30 days; 24 h after last injection; vs vehicle; N = 5 mice/group", "procedure": "All animal procedures were reviewed and approved by the Institutional Animal Care and Use Committee at James J. Peters Veterans Affairs Medical Center. […] No peptide injection was performed on the day of animal sacrifice.\nBlood was collected and serum was separated as described above. Serum Ca^2+ and Pi concentrations were measured using colorimetric Ca^2+ and Pi assay kits (Cat numbers K380 and K410, respectively) as indicated by the manufacturer (BioVision, Milpitas, CA).\nFor in vivo studies, five mice/group were used. […] Statistical analyses were performed using GraphPad Prism and Microsoft excel. […] The results are presented as the means ± SD. […] For carrying out multiple group comparisons (all in vivo experiments), one‐way analysis of variance (ANOVA) was performed. When ANOVA indicated unequal means, Tukey's honestly significant difference (HSD) posthoc test was performed to determine which means were different to the level of significance. Statistical significance was considered when P value was less than 0.05 (P < 0.05).\nSera were collected at sacrifice (24 h after last injection) and levels of Ca^2+ and Pi were measured using specific colorimetric assays. (A) Serum Ca^2+ levels. (B) Serum Pi levels. The statistical designation directly listed on the top of each bar indicates the significance level in comparison to vehicle. […] The data in all graph are expressed as the means ± SD. […]"}, "[3]": {"tested_on": "patients with osteoporosis", "conditions": "ref Neer et al. 2001, cited from earlier work", "excerpt": "Human life expectancy has increased, thanks to the advances in medical research and the subsequent improvement in health care. As a result, there is a growing demand for better management of the common illnesses of the increasing elderly population. One of these illnesses, osteoporosis, is a common world‐wide bone disorder and a major public health threat for 44 million Americans, 68% of them being women. Osteoporosis accounts for an estimated 1.5 million fractures in the US every year costing over 14 billion dollars. Furthermore, the National Osteoporosis Foundation estimates that 50% of wome ..."}, "RANKL gene expression": {"tested_on": "RANKL gene expression", "conditions": "in vivo and in vitro; ref Ricarte et al. 2018; cited from earlier work", "excerpt": "PTHR1 is a member of subclass B seven transmembrane spanning GTP‐binding protein (G‐protein) coupled receptors (GPCR) that activates multiple G‐proteins, primarily the Gs but also Gq/11, Gi, and G12/13 G‐proteins. As a result, PTHR1 activation stimulates multiple downstream pathways and events such as Gs/adenylate cyclase/cAMP/protein kinase A, Gq11/phospholipase C/diacylglycerol‐inositol‐triphosphate‐Ca/protein kinase C, phospholipase D, and Src/β‐arrestin/MAPK pathways and PTHR1 phosphorylation and internalization (Abou‐Samra et al. 1992; Sneddon et al. 2000; Tawfeek et al. 2001; Tawfeek et ..."}},
  "note": "Like-named read-outs stand apart in the source and are kept apart here.",
  "data": [
    {"compound": "CC[C@H](C)[C@H](NC(=O)[C@H](CO)NC(=O)[C@H](CCCCN)NC(=O)CNC(=O)[C@H](CCCCN)NC(=O)[C@H](CC(=O)O)NC(=O)[C@H](Cc1cnc[nH]1)NC(=O)[C@H](CC(C)C)NC(=O)[C@H](CC(C)C)NC(=O)[C@H](CCC(N)=O)NC(=O)[C@H](Cc1cnc[nH]1)NC(=O)[C@H](CCC(=O)O)NC(=O)[C@H](CO)NC(=O)[C@@H](NC(=O)[C@H](C)N)C(C)C)C(=O)N[C@@H](CCC(N)=O)C(=O)N[C@@H](CC(=O)O)C(=O)N[C@@H](CC(C)C)C(=O)N[C@@H](CCCNC(=N)N)C(=O)N[C@@H](CCCNC(=N)N)C(=O)N[C@@H](CCCNC(=N)N)C(=O)N[C@@H](CCC(=O)O)C(=O)N[C@@H](CC(C)C)C(=O)N[C@@H](CC(C)C)C(=O)N[C@@H](CCC(=O)O)C(=O)N[C@@H](CCCCN)C(=O)N[C@@H](CC(C)C)C(=O)N[C@@H](CC(C)C)C(=O)NC(C)(C)C(=O)N[C@@H](CCCCN)C(=O)N[C@@H](CC(C)C)C(=O)N[C@@H](Cc1cnc[nH]1)C(=O)N[C@H](C(=O)N[C@@H](C)C(N)=O)[C@@H](C)O", "note": "[abaloparatide]", "values": [
      {"measurement": "EC50", "setting": "[1]; 0.01–100 nmol/L, 40 min at 37°C, 0.5 mmol/L IBMX, cAMP competitive ELISA, mean ± SD, three independent experiments, p = 0.02 between analogs, read-out: EC50 for cAMP formation", "result": "300 ± 30", "unit": "pM"},
      {"measurement": "Decrease in EC50 value for cAMP formation compared to teriparatide", "setting": "[1]; abaloparatide vs teriparatide, p = 0.02", "result": 2.3, "unit": "fold"},
      {"measurement": "EC50 for β‐arrestin recruitment lower than that of teriparatide", "setting": "PTHR1", "result": 1.6, "unit": "fold"},
      {"measurement": "Patients with hypercalcemia", "setting": "patients; human, in vivo", "result": 3.4, "unit": "%"}
    ]},
    {"compound": "CC[C@H](C)[C@H](NC(=O)[C@H](CCC(=O)O)NC(=O)[C@H](CO)NC(=O)[C@@H](NC(=O)[C@@H](N)CO)C(C)C)C(=O)N[C@@H](CCC(N)=O)C(=O)N[C@@H](CC(C)C)C(=O)N[C@@H](CCSC)C(=O)N[C@@H](Cc1cnc[nH]1)C(=O)N[C@@H](CC(N)=O)C(=O)N[C@@H](CC(C)C)C(=O)NCC(=O)N[C@@H](CCCCN)C(=O)N[C@@H](Cc1cnc[nH]1)C(=O)N[C@@H](CC(C)C)C(=O)N[C@@H](CC(N)=O)C(=O)N[C@@H](CO)C(=O)N[C@@H](CCSC)C(=O)N[C@@H](CCC(=O)O)C(=O)N[C@@H](CCCN=C(N)N)C(=O)N[C@H](C(=O)N[C@@H](CCC(=O)O)C(=O)N[C@@H](Cc1c[nH]c2ccccc12)C(=O)N[C@@H](CC(C)C)C(=O)N[C@@H](CCCN=C(N)N)C(=O)N[C@@H](CCCCN)C(=O)N[C@@H](CCCCN)C(=O)N[C@@H](CC(C)C)C(=O)N[C@@H](CCC(N)=O)C(=O)N[C@@H](CC(=O)O)C(=O)N[C@H](C(=O)N[C@@H](Cc1cnc[nH]1)C(=O)N[C@@H](CC(N)=O)C(=O)N[C@@H](Cc1ccccc1)C(=O)O)C(C)C)C(C)C", "note": "[teriparatide]", "values": [
      {"measurement": "Patients with hypercalcemia", "setting": "patients; transient and infrequent event, ref Miller et al. 2018", "result": 6.4, "unit": "%"},
      {"measurement": "Elevation in serum Pi", "setting": "[2]", "result": 50, "unit": "%"}
    ]},
    {"compound": "PTH: PTH as administered in cited studies; context points to the amino‐terminal fragment PTH1‐34 (SVSEIQLMHNLGKHLNSMERVEWLRKKLQDVHNF; Parathyroid hormone; UniProt P01270 32-65, looked up, fragment)", "values": [
      {"measurement": "Increase in BMD in spine and femur versus bisphosphonates", "setting": "[3]; men and women with osteoporosis", "result": "more efficiently than treatment with bisphosphonates"},
      {"measurement": "Decrease in risk of vertebral and nonvertebral fractures", "setting": "[3]", "result": "more than 50%"},
      {"measurement": "RANKL gene expression", "setting": "RANKL gene expression", "result": "larger RANKL gene expression in vivo and in vitro"}
    ]}
  ]
}
